Here are results for two compounds from PMC12979031 (Neuro-oncology, 2026).

Data set [1] deals with recurrent IDHmt gliomas. The note with it: second study in this population; cited from earlier work.
The nature of data set [2]: Surgical. The data set is classed as in vivo. The note with it: human, oral, 60 mg.
For data set [3], the system named is PARP1/2. The note with it: read-out: in vitro IC50 for PARP1/2 inhibition; cited from earlier work.

As for `O=C(c1cc(Cc2n[nH]c(=O)c3ccccc23)ccc1F)N1CCN(C(=O)C2CC2)CC1` [olaparib], in data set [1], the responses result is on record as “no responses”.

Regarding `C[C@]12CCCN1CC1=NNC(=O)c3cc(F)cc4[nH]c2c1c34` [pamiparib], the fraction unbound (in general, free concentration divided by total concentration) stood at 0.076 in data set [2] (enhancing tumor), 0.083 in data set [2] (non-enhancing tumor) and 0.031 in data set [2] (plasma). Also, in data set [2] (non-enhancing tumor / plasma), the Kp (in general, the ratio of the level in a tissue or fluid to that in plasma or blood) was found to be 0.23. Also, the Kp uu in data set [2] (non-enhancing tumor / plasma) was determined as 0.92. The IC50 in data set [3] is approximately 1 nM.
